In paper PMC8306139, “A Novel Dialkylamino-Functionalized Chalcone, DML6, Inhibits Cervical Cancer Cell Proliferation, In Vitro, via Induction of Oxidative Stress, Intrinsic Apoptosis and Mitotic Catastrophe” (Molecules, 2021):
Like-named read-outs stand apart in the source and are kept apart here.

What was measured:
LOVO = test: MTT assay, LOVO; type: cell-based; settings: 72 h, read-out: IC50 ± SD Colon LOVO
Procedure: (§1) The concentration of the tested compounds that produced a 50% inhibition of cell growth (IC50) was determined.
(§2) A panel of cancer cell lines, including cervical (OV2008 and HeLa), breast (MDA-MB-231), lung (A549) and colon (LOVO), prostate (DU145), human embryonic kidney cells (HEK293), human colon fibroblast cells (CRL1459), and Chinese hamster ovary cells (CHO), were grown as adherent monolayers in flasks containing Dulbecco’s modified Eagle medium (DMEM), supplemented with 10% fetal bovine serum (FBS) and 1% penicillin and streptomycin, in a humidified incubator with 5% CO2 at 37 °C.
(§3) The cells were seeded evenly (180 μL/well) in 96-well plates, at a density of 3000–5000 cells/well and incubated with serial dilutions of the compounds ranging from 0.1 to 100 μM. The MTT dye (4 mg/ml) was added after 72 h of incubation and incubated with the cells for an additional 4 h at 37 °C, allowing the viable cells to biotransform the yellow-colored MTT into dark-blue formazan crystals. Following incubation, the medium was aspirated, and the formazan crystals were dissolved by adding 100 μL of DMSO to each well. Cytation™ 5 and Cytation™ 7 multi-mode detector (Bio Tek Instruments, Winooski, VT, USA) was used to determine the absorbance readings at a wavelength of 570 nm. The IC50 values were determined based on 3 separate experiments, with each experiment carried out in triplicate.

DU145 = test: MTT assay, DU145; type: cell-based; settings: Homo sapiens, DU-145, 72 h, read-out: IC50 ± SD Prostate DU145
Procedure: as §1, §2, §3

HeLa = test: MTT assay, HeLa; type: cell-based; settings: 72 h, read-out: IC50 ± SD Cervical HeLa
Procedure: Table S1. The antiproliferative efficacy of the DML1-DML12 compounds on the proliferation of cervical cancer cell line.
Figure S1. The efficacy of DML6 in HeLa cancer cells. The cell-viability curve produced by HeLa cells treated with
vehicle (0 μM), 5 or 10 μM of DML6 after 72 h of incubation. Cell survival was determined using the MTT assay. The
IC50 values are represented as the means ± SD of three independent experiments performed in triplicate. […]

MDA-MB-231 = test: MTT assay, MDA-MB-231; type: cell-based; settings: read-out: IC50 ± SD Breast MDA-MB-231
Procedure: as §1, §2, §3

A549 = test: MTT assay, A549; type: cell-based; settings: read-out: IC50 ± SD Lung A549
Procedure: as §1, §2, §3

OV2008 = test: MTT assay, OV2008; type: cell-based; settings: 72 h, read-out: IC50 ± SD Cervical OV2008
Procedure: as §1, §2
(§4) The cells were seeded evenly (180 μL/well) in 96-well plates, at a density of 3000–5000 cells/well and incubated with serial dilutions of the compounds ranging from 0.1 to 100 μM. The MTT dye (4 mg/ml) was added after 72 h of incubation and incubated with the cells for an additional 4 h at 37 °C, allowing the viable cells to biotransform the yellow-colored MTT into dark-blue formazan crystals. Following incubation, the medium was aspirated, and the formazan crystals were dissolved by adding 100 μL of DMSO to each well. Cytation™ 5 and Cytation™ 7 multi-mode detector (Bio Tek Instruments, Winooski, VT, USA) was used to determine the absorbance readings at a wavelength of 570 nm. The IC50 values were determined based on 3 separate experiments, with each experiment carried out in triplicate. The selectivity of the compounds was determined by comparing their IC50 values in cervical cancer compared to the normal epithelial cell lines, HEK293, CHO, and CRL1459.

HEK293 = test: MTT assay, HEK293; type: cell-based, human; settings: read-out: IC50 ± SD Kidney HEK293
Procedure: as §1, §2, §3

cancer cell lines = test: MTT assay, panel of cancer cell lines; type: cell-based
Procedure: as §1, §2, §4

Structure (SMILES) | IC50 (LOVO; Homo sapiens, LoVo) | IC50 (DU145) | IC50 (HeLa; Homo sapiens, HeLa) | IC50 (MDA-MB-231; Homo sapiens, MDA-MB-231, 72 h) | melting point | IC50 (A549; Homo sapiens, A549, 72 h) | IC50 (OV2008) | IC50 (HEK293; Homo sapiens, HEK293, 72 h) | IC50 (HeLa) | IC50 (LOVO) | IC50 (MDA-MB-231; 72 h) | IC50 (A549; 72 h) | anti-proliferative efficacy in a wide range of cancer cell lines, compared to normal cells (cancer cell lines) | IC50 (HEK293; 72 h)
CCN(CC)c1ccc(C2=NN(c3ccccc3)C(c3ccccn3)C2)cc1 (stereo not shown) [DML8, N,N-diethyl-4-[1-phenyl-5-(pyridin-2-yl)-4,5-dihydro-1H-pyrazol-3-yl]aniline] | > 100 µM | > 100 µM | > 100 µM | > 100 µM | 188 °C | > 100 µM | > 100 µM | > 100 µM | – | – | – | – | – | –
CCN(CC)c1ccc(/C=C/C(=O)c2ccccn2)cc1 [DML2, (E)-3-[4-(diethylamino)phenyl]-1-(pyridin-2-yl)prop-2-en-1-one] | > 100 µM | > 100 µM | > 100 µM | > 100 µM | 142 °C | > 100 µM | > 100 µM | > 100 µM | – | – | – | – | – | –
COc1ccc(C2CC(c3ccc(N(C)C)cc3)=NN2c2ccccc2)cc1OC (stereo not shown) [DML10, 4-(5-(3,4-dimethoxyphenyl)-1-phenyl-4,5-dihydro-1H-pyrazol-3-yl)-N,N-dimethylaniline] | > 100 µM | > 100 µM | > 100 µM | > 100 µM | 134 °C | > 100 µM | > 100 µM | > 100 µM | – | – | – | – | – | –
COc1ccc(C(=O)/C=C/c2ccc(N(C)C)cc2)cc1 [DML3, (E)-3-[4-(dimethylamino)phenyl]-1-(4-methoxyphenyl)prop-2-en-1-one] | > 100 µM | > 100 µM | > 100 µM | > 100 µM | – | > 100 µM | > 100 µM | > 100 µM | – | – | – | – | – | –
CCN(CC)c1ccc(C2=NN(c3ccccc3)C(c3ccc(OC)cc3)C2)cc1 (stereo not shown) [DML11, N,N-diethyl-4-(5-(4-methoxyphenyl)-1-phenyl-4,5-dihydro-1H-pyrazol-3-yl)aniline] | > 100 µM | > 100 µM | > 100 µM | > 100 µM | 121 °C | > 100 µM | > 100 µM | > 100 µM | – | – | – | – | – | –
CN(C)c1ccc(C2=NN(c3ccccc3)C(c3ccccn3)C2)cc1 (stereo not shown) [DML7, N,N-dimethyl-4-[1-phenyl-5-(pyridin-2-yl)-4,5-dihydro-1H-pyrazol-3-yl]aniline] | > 100 µM | > 100 µM | > 100 µM | > 100 µM | 179 °C | > 100 µM | > 100 µM | > 100 µM | – | – | – | – | – | –
CN(C)c1ccc(/C=C/C(=O)c2ccccn2)cc1 [DML1, (E)-3-[4-(dimethylamino)phenyl]-1-(pyridin-2-yl)prop-2-en-1-one] | > 100 µM | > 100 µM | > 70 µM | > 100 µM | 126 °C | > 100 µM | > 100 µM | > 100 µM | 70.7 ± 2.19 µM | – | – | – | – | –
COc1ccc(C2CC(c3ccc(N(C)C)cc3)=NN2c2ccccc2)cc1 (stereo not shown) [DML9, 4-(5-[4-methoxyphenyl]-1-phenyl-4,5-dihydro-1H-pyrazol-3-yl)-N,N-dimethylaniline] | > 100 µM | > 100 µM | > 100 µM | > 100 µM | 147 °C | > 100 µM | > 100 µM | > 100 µM | – | – | – | – | – | –
CN(C)c1ccc(C2=NN(c3ccccc3)C(c3ccc(Cl)cc3Cl)C2)cc1 (stereo not shown) [DML12, 4-(5-(2,4-dichlorophenyl)-1-phenyl-4,5-dihydro-1H-pyrazol-3-yl)-N,N-dimethylaniline] | > 100 µM | > 100 µM | > 100 µM | > 100 µM | 124 °C | > 100 µM | > 100 µM | > 100 µM | – | – | – | – | – | –
COc1ccc(C(=O)/C=C/c2ccc(N(C)C)cc2)cc1OC [DML4, (E)-1-[3,4-dimethoxyphenyl]-3-(4-(dimethylamino)phenyl)prop-2-en-1-one] | 66.3 ± 4.6 µM | 22.5 ± 4.9 µM | 39.5 ± 11.4 µM | 26.7 ± 23.9 µM | 86 °C | 45 ± 22.6 µM | 13.8 ± 7 µM | > 65 µM | – | 45 ± 22.6 µM | 26.2 ± 23.9 µM | 66.3 ± 4.6 µM | moderate to good anti-proliferative efficacy | 68.5 ± 2.1 µM
